Here are results for 2 compounds from patent publication US20260355129A1, “5-HT2C AGONISTS FOR TREATING PRADER-WILLI SYNDROME (PWS), METABOLIC SYNDROMES, AND OTHER DISEASES AND DISORDERS” (Park City Bio, LLC, priority 2025, published 2026).

What all share (format): cell-based
What all share (conditions): HEK-293T, HEK293T, normalized to % 5-HT stimulation, class symbols (Table 5)

In one assay the target is T1, 5-HT2C receptor (Homo sapiens, UniProt P28335).
T1 construct: expressed in transfected cells; host or cells: HEK293T
T1 sequence (P28335 33-458): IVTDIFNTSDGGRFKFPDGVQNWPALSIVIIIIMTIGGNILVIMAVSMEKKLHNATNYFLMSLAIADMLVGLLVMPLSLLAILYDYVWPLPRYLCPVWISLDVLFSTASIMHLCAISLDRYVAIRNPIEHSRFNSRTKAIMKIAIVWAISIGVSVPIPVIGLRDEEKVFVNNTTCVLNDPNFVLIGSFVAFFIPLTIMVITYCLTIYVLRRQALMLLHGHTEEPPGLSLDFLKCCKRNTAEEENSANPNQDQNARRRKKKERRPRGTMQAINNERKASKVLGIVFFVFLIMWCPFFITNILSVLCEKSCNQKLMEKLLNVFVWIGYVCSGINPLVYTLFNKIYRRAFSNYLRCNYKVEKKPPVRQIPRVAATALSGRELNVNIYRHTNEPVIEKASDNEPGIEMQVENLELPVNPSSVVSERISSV
Put plainly: 5-HT2 receptor-mediated Gq activation, Gq/y1 dissociation by BRET, 5-HT2C. An excerpt:
(§1) To measure 5-HT2 receptor-mediated Gq activation via Gq/y1 dissociation as measured by Bioluminescence Resonance Energy Transfer (BRET) (McCorvy J D, Wacker D, Wang S, Agegnehu B, Liu J, Lansu K, Tribo A R, Olsen R H J, Che T, Jin J, Roth B L. Structural determinants of 5-HT2B receptor activation and biased agonism. Nat Struct Mo/Biol. 2018; 25(9): 787-96), HEK293T cells were sub-cultured in Dulbecco's Modified Eagle Medium (DMEM) supplemented with 10% dialyzed fetal bovine serum (FBS) and were co-transfected in a 1:1:1:1 ratio with Rluc8-fused human Gaq (Gaq-Rluc8), a GFP2-fused to the C-terminus of human Gy1(Gy1-GFP2), human G131, and 5-HT2 receptor using TransiT-2020. […] Substrate addition occurred 15 minutes before reading and utilized 10 μL of the Rluc substrate coelenterazine 400a for Gq dissociation BRET^2 (Prolume/Nanolight, 5 μM final concentration). Plates were read for luminescence at 400 nm and fluorescent GFP2 emission at 510 nm at 1 second per well using a Mithras LB940 multimode microplate reader (e.g. one provided by Berthold). The BRET ratios of fluorescence/luminescence were calculated per well and were plotted as a function of drug concentration using Graphpad Prism 8 (Graphpad Software Inc., San Diego, CA).
On the technique in general: In BRET a luciferase serves as donor, and the signal depends on an acceptor being close.

A further assay deals with T2, 5-HT2B receptor (Homo sapiens, UniProt P41595).
T2 construct: expressed in transfected cells; host or cells: HEK293T
In words: 5-HT2 receptor-mediated Gq activation, Gq/y1 dissociation by BRET, 5-HT2B.
Source text: as §1

In a further assay the target is T3, 5-HT2A receptor (Homo sapiens, UniProt P28223).
T3 construct: expressed in transfected cells; host or cells: HEK293T
Put plainly: 5-HT2 receptor-mediated Gq activation, Gq/y1 dissociation by BRET, 5-HT2A.
Source text: as §1

SMILES strings stand for the structures.

T3 sequence (P28223 whole entry): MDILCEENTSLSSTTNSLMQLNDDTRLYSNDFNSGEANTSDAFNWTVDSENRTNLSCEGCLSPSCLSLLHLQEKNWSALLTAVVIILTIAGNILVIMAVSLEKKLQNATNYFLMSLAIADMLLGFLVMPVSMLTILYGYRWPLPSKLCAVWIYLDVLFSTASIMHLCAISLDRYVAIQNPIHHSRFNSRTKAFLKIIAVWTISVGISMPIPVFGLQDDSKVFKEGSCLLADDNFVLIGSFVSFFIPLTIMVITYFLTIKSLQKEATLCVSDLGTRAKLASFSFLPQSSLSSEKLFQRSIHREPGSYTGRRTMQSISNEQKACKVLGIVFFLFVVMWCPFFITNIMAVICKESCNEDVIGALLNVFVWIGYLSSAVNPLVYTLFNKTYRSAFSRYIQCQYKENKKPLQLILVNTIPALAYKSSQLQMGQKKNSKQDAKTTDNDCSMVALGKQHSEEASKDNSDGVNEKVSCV
T2 sequence (P41595 whole entry): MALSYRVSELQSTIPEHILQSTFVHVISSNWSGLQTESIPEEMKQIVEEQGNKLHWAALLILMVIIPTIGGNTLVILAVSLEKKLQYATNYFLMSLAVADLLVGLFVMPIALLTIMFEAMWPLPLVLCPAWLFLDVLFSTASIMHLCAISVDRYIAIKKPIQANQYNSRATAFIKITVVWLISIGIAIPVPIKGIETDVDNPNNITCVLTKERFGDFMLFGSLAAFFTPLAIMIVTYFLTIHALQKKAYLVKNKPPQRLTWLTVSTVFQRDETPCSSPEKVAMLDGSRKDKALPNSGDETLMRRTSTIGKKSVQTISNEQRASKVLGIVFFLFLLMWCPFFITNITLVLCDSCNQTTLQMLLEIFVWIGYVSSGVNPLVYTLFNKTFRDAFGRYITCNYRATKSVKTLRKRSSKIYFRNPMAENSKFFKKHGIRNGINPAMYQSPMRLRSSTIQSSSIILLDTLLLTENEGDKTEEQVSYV

What is called Emax is the greatest response seen or fitted, relative to the assay's reference. With `CNC[C@H]1C[C@@H]1c1cc(F)ccc1OC`, the maximal effect (Emax) on 5-HT2C receptor, at 5-HT2B receptor and on 5-HT2A receptor was 50 to 80% each time.
For the compound `CNCC1CC1c1cc(F)ccc1SC` (centres unmarked), the maximal response (Emax) on 5-HT2C receptor and at 5-HT2A receptor was 50 to 80% throughout.
